Measurements: patent US9012500B2, “PKC-ε activator” (Nishizaki Bioinformation Research Institute, priority 2010, dated 2015)

Assays:
PKC-ε = target: T1, PKC-ε (Rattus norvegicus, UniProt P09216); assay: Intracellular PKC assay after knockdown of PKC-ε (siRNA) in PC-12 cells; format: cell-based; conditions: PKC-ε siRNA vs NC siRNA, FIG. 3
T1 construct: PC-12 cells were transfected with PKC-ε siRNA or NC siRNA; endogenous in cells; host or cells: rat PC-12 cells
T1 sequence (P09216 1-737): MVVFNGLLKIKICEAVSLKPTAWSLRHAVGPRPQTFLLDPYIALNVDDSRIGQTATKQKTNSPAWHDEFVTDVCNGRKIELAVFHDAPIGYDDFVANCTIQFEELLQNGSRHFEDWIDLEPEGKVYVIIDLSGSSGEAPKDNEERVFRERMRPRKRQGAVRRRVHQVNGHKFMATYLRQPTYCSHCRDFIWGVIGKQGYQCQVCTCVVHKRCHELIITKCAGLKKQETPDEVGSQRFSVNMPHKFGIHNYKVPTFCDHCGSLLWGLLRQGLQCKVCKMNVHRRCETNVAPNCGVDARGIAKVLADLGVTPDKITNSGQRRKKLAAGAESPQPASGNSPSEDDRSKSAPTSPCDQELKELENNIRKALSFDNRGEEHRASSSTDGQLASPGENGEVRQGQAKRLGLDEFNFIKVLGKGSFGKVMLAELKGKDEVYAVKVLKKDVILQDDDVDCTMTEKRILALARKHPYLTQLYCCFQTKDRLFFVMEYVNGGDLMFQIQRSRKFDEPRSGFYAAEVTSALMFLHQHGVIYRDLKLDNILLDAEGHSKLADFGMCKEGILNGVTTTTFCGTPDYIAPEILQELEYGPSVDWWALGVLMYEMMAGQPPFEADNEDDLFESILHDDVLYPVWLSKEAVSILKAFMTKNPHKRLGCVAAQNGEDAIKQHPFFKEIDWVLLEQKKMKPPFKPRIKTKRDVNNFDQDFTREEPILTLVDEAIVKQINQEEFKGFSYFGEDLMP
Procedure: According to the method described in a publication [Kanno T et al., J Lipid Res 47 (6):1146-1156, 2006], the PKC activity of rat PC-12 cells was assayed. The cells were treated with each DCP-LA optical isomer at 37° C. for 10 min. The treatment was performed in an extracellular solution [137 mM NaCl, 5.4 mM KCl, 10 mM MgCl2, 5 mM ethyleneglycol-bis(2-aminoethylether)-N,N,N′,N′-tetraacetic acid (EGTA), 0.3 mM Na2HPO4, 0.4 mM K2HPO4 and 20 mM 4-(2-hydroxyethyl)-1-piperazin-ethanesulfonic acid, pH 7.2]. Then, the cells were rinsed with 100 μl of phosphate-buffered saline (PBS) in the absence of Ca^2+, and incubated in an extracellular solution (50 μl) containing 50 μg/ml digitonin, 25 mM glycerol 2-phosphate, 200 μM ATP and 100 μM synthetic PKC substrate peptide (Pyr-Lys-Arg-Pro-Ser-Gln-Arg-Ser-Lys-Tyr-Leu (SEQ ID NO: 1); MW, 1,374; Pyr: […]) at 37° C. for 15 min. […] A substrate peptide peak and a new resultant product peak were detected at the absorbance of 214 nm (SPD-10Avp UV-VIS detector, Shimadzu Co., Kyoto, Japan). […] The molecular weight was calculated from the two standard spectra of bradykinin (MW 1060.2) and substance P (MW 1672.9).
The areas of the non-phosphorylated and phosphorylated substrate peptides were measured (total area corresponds to the concentration of PKC substrate peptide used). […]

[1] = tested on: dopamine release from the striatum; assay: Dopamine release from rat striatum sections (HPLC); format: cell-based

- PKC activation induced by the compound after knocking down PKC-ε (PKC-ε): inhibited by knocking down PKC-ε
Structure (SMILES): CCCCC[C@@H]1C[C@@H]1C[C@@H]1C[C@H]1CCCCCCCC(=O)O [α,β-DCP-LA, 8-[(1R,2S)-2-{(1R,2R)-2-pentylcyclopropylmethyl}-cyclopropyl]octanoic acid]
- dopamine release stimulation action compared to the other optical isomers ([1]; 100 nM, in the presence of nicotine (1 μM), FIG. 10): remarkably high
- concentration at which dopamine release stimulation action reaches maximum (bell-shaped) ([1]; rat striatum sections, FIG. 11): about 250 nM
- dopamine release, substance alone vs non-treated group ([1]; treated alone, FIG. 12): did not show a remarkable difference
- effect on dopamine release caused by nicotine ([1]; with nicotine (1 μM), FIG. 12): remarkably enhanced
